“And” between values parts separate entries of the source, which are not always exact repeats. Equal values may be shown once. Residues, ends and D or L forms follow the SMILES beside them. *: point of attachment. Cbz = O=C(OCc1ccccc1)*; NHPh = c1ccc(N*)cc1; OtBu = CC(C)(C)O*
Experiments:
[1] = system: donor-derived DRG neurons; assay: Whole-cell current-clamp, human donor-derived DRG neurons; type: cell-based
Source text: Human donor (hDRG) neurons. Dorsal root ganglia were recovered from consented, de-identified organ and tissue donors at the University of Cincinnati Medical Center following previously described protocols (57, 58). Recovered tissues were transported in oxygenated, ice-cold N-methyl-D-glucamine (NMDG) artificial […] (aCSF, mM): 93 NMDG, 2.5 KCl, 1.25 NaH2PO4, 30 NaHCO3, 20 HEPES, 25 Glucose, 5 Ascorbic acid, 2 Thiourea, 3 Na+ pyruvate, 10 MgSO4, 0.5 CaCl2, 12 N-acetylcysteine, adjusted to pH 7.4 with HCl). hDRGs were isolated from connective tissue, fat, roots, and nerves and then minced into small 1-3 mm pieces which were enzymatically treated with warmed papain (45U) followed by collagenase (4.5 mg/200µl) each for 40 minutes at 37 °C, 5% CO2 in HBSS with 5 mM HEPES (Hanks’ Balanced Salt Solution with 4-2 (2-hydrozyethyl)-1-piperazineethananessulfonic acid; Gibco). Neurons were dissociated by trituration and incubated in warmed Neurobasal A-based DRG media (with penicillin/streptomycin, B27 supplement (Gibco), fetal bovine serum (FBS), and GlutaMAX (Gibco, cat # 35050061), as previously described. Dissociated DRG suspension was plated onto poly-d-lysine (0.01 mg/ml, Sigma) and collagen (1 mg/ml, Sigma) coated coverslips and incubated 2 days. […]
following salts: extracellular (mM): 140 NaCl, 3 KCl, 1 MgCl2, 1 CaCl2, 10 HEPES, 10 glucose, pH 7.3; intracellular (mM): 130 CH3O3 SCs, 1 EGTA, 10 NaCl, 10 HEPES, pH 7.3. Membrane capacitance and series resistance were estimated by the dial settings on the amplifier and compensated for electronically by 70–80%.
Data was acquired at 20 kHz and filtered at 5 kHz before digitization and storage. All experimental parameters were controlled by Clampex 9.2 software (Molecular Devices) and interfaced to the electrophysiological equipment using a Digidata 1300 analog–digital interface (Molecular Devices). […]
μM PW164 or ZL192 in the extracellular solution. The recording solution consisted of the following salts: extracellular (mM): 130 NaCl, 3 KCl, 30 TEA, 0.1 CdCl2 1 MgCl2, 1 CaCl2, 10 HEPES, 10 glucose, pH 7.3; intracellular (mM): 140 CsF, 1.1 EGTA, 10 NaCl, 10 HEPES, pH 7.3.
Human donor DRG neurons: Coverslips were transferred to a recording chamber and bathed in extracellular solution (mM): 145 NaCl, 3 KCl, 2.5 CaCl2, 1.2 MgCl2, 10 HEPES, 7 glucose, 0.05 CdCl2 adjusted to pH 7.4 with NaOH, with a flow rate of 1-2 ml/min. Borosilicate glass pipettes with the resistance of 1.5 to 2.5 MΩ were made using a P-1000 micropipette puller (Sutter Instrument, Novato, CA, USA). The intracellular solution contained (mM): 130 K-gluconate, 5 KCl, 5 NaCl, 2 MgCl2, 0.3 Ethylene glycol-bis(2-aminoethylether)- NNN’N’-tetraacetic acid (EGTA), 10 HEPES, 2 Na ATP, adjusted to pH 7.3 with KOH and 294 mOsm with sucrose. Coverslips were pre-incubated in 50 µM PW164 or ZL192 or 0.1% DMSO vehicle for 1 hour before recording. Recordings were obtained on MultiClamp 700B and Digidata 1550A (Molecular Devices) and sampled […]
at 20 kHz. Neurons were investigated if resting membrane potential was below -45 mV. Neurons were held under current clamp, and membrane properties and action potential discharge were assessed as previously described […]
Human Dorsal Root Ganglia Procurement
Human dorsal root ganglia (DRGs) procurement procedures were performed in accordance with the Institutional Review Boards at the University of Texas at Dallas. DRGs were procured from organ donors through a collaboration with the Southwest Transplant Alliance (STA). DRGs were frozen in powdered dry ice at the time of extraction and then stored in a -80°C freezer until use. Details on tissue procurement procedures, quality metrics, and tissue preparation can be found on protocols.io doi:10.17504/protocols.io.kqdg32qr1v25/v1 (2024).
The medical history of each donor was provided by the STA and is a summary of information from hospital records and family members. Donor demographics, condition (non-diabetic vs diabetic painful neuropathy […]

C57BL/6 mice = assay: Mechanical sensitivity (von Frey, LVF/HVF) after intraplantar injection, mice without capsaicin; type: in vivo, mouse; parameters: key to LVF Mean / HVF Mean: % withdrawals from 10 consecutive von Frey stimulations; conditions: for HVF Mean / LVF Mean: without capsaicin
Method: Experiments were performed on 6- to 12-week-old male C57BL/6 mice (The Jackson Laboratory, Bar Harbor, ME) housed in the AAALAC-accredited facility at the University of Texas Medical Branch. Mice were group-housed with up to 5 mice per cage on a 12-to-12-hour light–dark cycle and had access to water and food ad libitum. All protocols were approved by the Institutional Animal Care and Use Committee (IACUC) at the University of Texas Medical Branch and in accordance with the National Institutes of Health (NIH) guidelines.
PW164 and ZL192 were dissolved in DMSO and saline in a ratio of 1:10. 0.1% capsaicin (10% ethanol, 10% Tween-20 in saline; Sigma-Aldrich). All the compounds were injected at the center of the hind paw. The control group received a DMSO-saline mixture. […]
Assessment of mechanical sensitivity
Mechanical sensitivity was assessed using von Frey filaments (VFF 0.1g and 1.0 g force) in mice that were either naïve or received intraplantar (i.p.) injection of capsaicin. VFFs were applied at the injection site (capsaicin or drug unilateral intraderma l injection at the center of the hind paw using a 30 -G needle). VFF of 1.0 g force, which evokes a 40–60% withdrawal response in the naïve condition, was used to detect hyperalgesia, and VFF of 0.1 g […]
mechanical sensitivity was expressed as % withdrawals from 10 consecutive stimulations. […]

[2] = 50 µM, 1 hour preincubation, relative to control

Structure (SMILES): COC(=O)[C@@H](NC(=O)[C@H](CCC(=O)OC(C)(C)C)NC(=O)[C@H](CC(C)C)NC(=O)[C@@H]1CCCN1C(=O)OCc1ccccc1)C(C)C [PW164] (Cbz-PLE(OtBu)V-OMe)
- action potential firing [1, 2]: reduced action potential firing
- rheobase to fire an action potential [1, 2]: increased rheobase
- Suppl Fig. S16A, 1x ([1]; single cells): 1
- HVF Mean (C57BL/6 mice; PW164 0.07mg/mL, Time (h) 0): 50
- LVF Mean (C57BL/6 mice; PW164 0.07mg/mL, Time (h) 0): 0
- HVF Mean (C57BL/6 mice; PW164 0.07mg/mL, Time (h) 0.5): 50
- LVF Mean (C57BL/6 mice; PW164 0.07mg/mL, Time (h) 0.5): 0
- HVF Mean (C57BL/6 mice; PW164 0.07mg/mL, Time (h) 1): 55
- LVF Mean (C57BL/6 mice; PW164 0.07mg/mL, Time (h) 1): 0
- HVF Mean (C57BL/6 mice; PW164 0.07mg/mL, Time (h) 1.5): 50
- LVF Mean (C57BL/6 mice; PW164 0.07mg/mL, Time (h) 1.5): 0
- HVF Mean (C57BL/6 mice; PW164 0.07mg/mL, Time (h) 2): 50
- LVF Mean (C57BL/6 mice; PW164 0.07mg/mL, Time (h) 2): 0
- HVF Mean (C57BL/6 mice; PW164 0.21 mg/mL, Time (h) 0): 53.3333
- LVF Mean (C57BL/6 mice; PW164 0.21 mg/mL, Time (h) 0): 0
- HVF Mean (C57BL/6 mice; PW164 0.21 mg/mL, Time (h) 0.5): 50
- LVF Mean (C57BL/6 mice; PW164 0.21 mg/mL, Time (h) 0.5): 0
- HVF Mean (C57BL/6 mice; PW164 0.21 mg/mL, Time (h) 1): 50
- LVF Mean (C57BL/6 mice; PW164 0.21 mg/mL, Time (h) 1): 0
- HVF Mean (C57BL/6 mice; PW164 0.21 mg/mL, Time (h) 1.5): 53.3333
- LVF Mean (C57BL/6 mice; PW164 0.21 mg/mL, Time (h) 1.5): 0
- HVF Mean (C57BL/6 mice; PW164 0.21 mg/mL, Time (h) 2): 50
- LVF Mean (C57BL/6 mice; PW164 0.21 mg/mL, Time (h) 2): 3.333
- HVF Mean (C57BL/6 mice; PW164 0.7 mg/mL, Time (h) 0): 53.3333
- LVF Mean (C57BL/6 mice; PW164 0.7 mg/mL, Time (h) 0): 0
- HVF Mean (C57BL/6 mice; PW164 0.7 mg/mL, Time (h) 0.5): 50
- LVF Mean (C57BL/6 mice; PW164 0.7 mg/mL, Time (h) 0.5): 0
- HVF Mean (C57BL/6 mice; PW164 0.7 mg/mL, Time (h) 1): 56.6667
- LVF Mean (C57BL/6 mice; PW164 0.7 mg/mL, Time (h) 1): 0
- HVF Mean (C57BL/6 mice; PW164 0.7 mg/mL, Time (h) 1.5): 53.3333
- LVF Mean (C57BL/6 mice; PW164 0.7 mg/mL, Time (h) 1.5): 3.333
- HVF Mean (C57BL/6 mice; PW164 0.7 mg/mL, Time (h) 2): 56.6667
- LVF Mean (C57BL/6 mice; PW164 0.7 mg/mL, Time (h) 2): 0
- paw withdrawal to LVF/HVF stimulation, normal sensitivity (C57BL/6 mice; WT mice, i.pl. 5 μL, doses tested): did not affect paw withdrawal

Structure (SMILES): CC(=O)N[C@@H](Cc1ccccc1)C(=O)N[C@@H](CC(C)C)C(=O)N1CCC[C@H]1C(=O)N[C@@H](CCCCN)C(=O)Nc1ccccc1 [ZL192] (Ac-FLPK-NHPh)
- rheobase to fire an action potential [1, 2]: decreased rheobase
- Suppl Fig. S16A, 1x ([1]; single cells): 1
- Suppl Fig. S16A, 3x ([1]; 3x, single cells): 2 and 1
- mechanical hypersensitivity in AAV2-shFGF13 mice (C57BL/6 mice; ZL192 0.18 mg/mL, i.pl.): absent
- mechanical sensitivity in AAV2-shCTRL mice (C57BL/6 mice; ZL192 0.18 mg/mL, i.pl.): caused mechanical and thermal hypersensitivity
- duration of increased mechanical response (C57BL/6 mice; naive WT mice, ZL192 i.pl. 0.06 or 0.18 mg/mL): up to 2 hours
- response to LVF and HVF stimulation (C57BL/6 mice; naive WT mice, ZL192 i.pl. 5 μL, 0.06 or 0.18 mg/mL, vs vehicle): increased the response

Reference: paper PMC12259270, “Sensory neuron–expressed FGF13 controls nociceptive signaling in diabetic neuropathy models” (The Journal of Clinical Investigation, 2025)
